In ChEMBL document CHEMBL4219212, “Synthesis of 3-(3-hydroxyphenyl)pyrrolidine dopamine D3 receptor ligands with extended functionality for probing the secondary binding pocket” (Bioorg Med Chem Lett, 2018):

These compounds were tested against T1, 5-hydroxytryptamine receptor 1A (Homo sapiens, UniProt P08908) (assay: Displacement of [3H]-Way100635 from 5HT1A receptor (unknown origin) expressed in stable CHO cell membranes by radioligand binding assay).
T1 sequence (P08908 whole entry): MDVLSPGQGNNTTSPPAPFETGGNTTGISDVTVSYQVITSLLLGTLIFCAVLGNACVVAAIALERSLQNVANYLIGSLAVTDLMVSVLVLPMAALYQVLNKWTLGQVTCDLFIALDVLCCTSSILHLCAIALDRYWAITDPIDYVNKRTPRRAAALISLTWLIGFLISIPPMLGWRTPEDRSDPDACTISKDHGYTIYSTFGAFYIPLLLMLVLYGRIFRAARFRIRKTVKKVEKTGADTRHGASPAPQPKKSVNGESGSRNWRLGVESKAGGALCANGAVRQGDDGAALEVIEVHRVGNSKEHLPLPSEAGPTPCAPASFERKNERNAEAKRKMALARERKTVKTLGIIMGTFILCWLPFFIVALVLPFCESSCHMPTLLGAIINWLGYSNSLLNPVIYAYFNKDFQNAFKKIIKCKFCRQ
In the case of `CCCCCCCCCN1CCC(c2cccc(O)c2)C1` (racemic), the Ki is reported as 15 nM. `CCCCN1CCC(c2cccc(O)c2)C1` (stereo not drawn) showed a Ki of 1810 nM. With `CCCCCCCCCN1CCC(c2cccc(O)c2)C1` (single isomer, unassigned; (+)) the Ki was 115 nM. Work on `CCCCCCCCN1CCC(c2cccc(O)c2)C1` (stereo not drawn) yielded a Ki of 9.4 nM. In the case of `CCCCCN1CCC(c2cccc(O)c2)C1` (stereo not drawn), the Ki is reported as 326 nM. `CCCCCCCCCN1CCC(c2cccc(O)c2)C1` (single isomer, unassigned; (-)) showed a Ki of 48 nM. With `CCCCCCN1CCC(c2cccc(O)c2)C1` (stereo not drawn) the Ki was 272 nM. In the case of `CCCCCCCCCCN1CCC(c2cccc(O)c2)C1` (stereo not drawn), the Ki is reported as 12 nM. `CCCCCCCN1CCC(c2cccc(O)c2)C1` (stereo not drawn) was tested, and the Ki was 19 nM.

What follows are compounds tested against D(3) dopamine receptor (Homo sapiens, UniProt P35462) (assay: Binding affinity to human dopamine D3 receptor).
Sequence of D(3) dopamine receptor (P35462 whole entry): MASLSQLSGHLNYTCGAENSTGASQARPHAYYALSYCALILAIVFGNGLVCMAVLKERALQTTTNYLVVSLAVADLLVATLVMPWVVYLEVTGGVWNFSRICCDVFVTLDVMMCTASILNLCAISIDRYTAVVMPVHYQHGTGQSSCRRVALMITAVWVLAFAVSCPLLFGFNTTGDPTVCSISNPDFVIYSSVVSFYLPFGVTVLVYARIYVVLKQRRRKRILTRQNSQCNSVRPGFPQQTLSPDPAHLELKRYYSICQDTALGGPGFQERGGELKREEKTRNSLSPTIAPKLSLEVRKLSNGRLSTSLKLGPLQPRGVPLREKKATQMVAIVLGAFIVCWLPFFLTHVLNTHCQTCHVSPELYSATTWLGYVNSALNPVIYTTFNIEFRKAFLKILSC
Work on `CCCN1CCC(c2cccc(O)c2)C1` (stereo not drawn) yielded a Ki of 52 nM.

What follows are compounds tested against D(1A) dopamine receptor (Homo sapiens, UniProt P21728) (assay: Displacement of [3H]SCH23390 from human dopamine D1 receptor expressed in HEK293T cell membranes by radioligand binding assay).
Sequence of D(1A) dopamine receptor (P21728 whole entry): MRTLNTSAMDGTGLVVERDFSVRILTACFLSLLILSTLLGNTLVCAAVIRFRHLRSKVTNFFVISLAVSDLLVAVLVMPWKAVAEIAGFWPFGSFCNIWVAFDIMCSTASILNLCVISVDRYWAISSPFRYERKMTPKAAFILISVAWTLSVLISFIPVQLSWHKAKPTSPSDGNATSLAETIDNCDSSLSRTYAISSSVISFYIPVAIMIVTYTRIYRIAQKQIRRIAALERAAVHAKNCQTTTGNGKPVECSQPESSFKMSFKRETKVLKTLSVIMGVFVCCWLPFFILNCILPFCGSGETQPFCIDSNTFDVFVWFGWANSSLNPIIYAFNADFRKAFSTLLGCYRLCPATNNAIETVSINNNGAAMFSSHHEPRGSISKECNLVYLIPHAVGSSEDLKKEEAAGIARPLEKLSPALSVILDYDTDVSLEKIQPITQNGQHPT
`CCCCCCCCCN1CCC(c2cccc(O)c2)C1` (racemic) was tested, and the Ki was 174 nM. `CCCCN1CCC(c2cccc(O)c2)C1` (stereo not drawn) was tested, and the Ki was 861 nM. Work on `CCCCCCCCCN1CCC(c2cccc(O)c2)C1` (single isomer, unassigned; (+)) yielded a Ki greater than 10000 nM. With `CN(C)c1ccc(C(=O)NCCCCN2CCC(c3cccc(O)c3)C2)cc1` (single isomer, unassigned; (+)) the Ki was greater than 10000 nM. Work on `CCCCCCCCN1CCC(c2cccc(O)c2)C1` (stereo not drawn) yielded a Ki of 170 nM. With `CCCCCN1CCC(c2cccc(O)c2)C1` (stereo not drawn) the Ki was 542 nM. `CCCCCCCCCN1CCC(c2cccc(O)c2)C1` (single isomer, unassigned; (-)) was tested, and the Ki was 181 nM. `CCCCCCN1CCC(c2cccc(O)c2)C1` (stereo not drawn) gave a Ki of 1280 nM. `CCCCCCCCCCN1CCC(c2cccc(O)c2)C1` (stereo not drawn) was tested, and the Ki was 128 nM. `CCCCCCCN1CCC(c2cccc(O)c2)C1` (stereo not drawn) was tested, and the Ki was 597 nM. In the case of `CN(C)c1ccc(C(=O)NCCCCN2CCC(c3cccc(O)c3)C2)cc1` (single isomer, unassigned; (-)), the Ki is reported as 4590 nM. `CN(C)c1ccc(C(=O)NCCCCN2CCC(c3cccc(O)c3)C2)cc1` (racemic) showed a Ki of 831 nM.

What follows are compounds tested against D(2) dopamine receptor (Homo sapiens, UniProt P14416) (assay: Binding affinity to human dopamine D2 receptor).
Sequence of D(2) dopamine receptor (P14416 whole entry): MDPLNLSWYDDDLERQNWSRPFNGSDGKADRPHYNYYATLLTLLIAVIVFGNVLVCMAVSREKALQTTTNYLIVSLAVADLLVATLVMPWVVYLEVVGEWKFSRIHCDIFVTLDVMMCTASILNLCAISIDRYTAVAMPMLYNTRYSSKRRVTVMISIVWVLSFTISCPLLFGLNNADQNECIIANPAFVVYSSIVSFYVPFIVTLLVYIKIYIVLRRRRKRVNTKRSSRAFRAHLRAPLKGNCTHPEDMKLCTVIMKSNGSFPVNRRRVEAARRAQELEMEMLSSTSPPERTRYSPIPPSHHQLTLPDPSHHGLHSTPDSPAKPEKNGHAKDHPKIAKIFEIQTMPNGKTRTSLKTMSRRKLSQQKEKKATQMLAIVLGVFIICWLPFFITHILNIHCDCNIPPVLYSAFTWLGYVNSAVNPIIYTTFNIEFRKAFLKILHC
Work on `CCCN1CCC(c2cccc(O)c2)C1` (stereo not drawn) yielded a Ki of 68 nM.
